As a reminder, the Ki is a measure of affinity in units of concentration, obtained from inhibition or displacement. A lower Ki goes with higher affinity.

Here are results for two molecules from patent US8263773B2, “Thieno [2,3-b] pyridine compounds with mGluR activity” (Richter Gedeon Nyrt., priority 2008, dated 2012).

The target in one assay is T1, rat mGluR5 (Rattus norvegicus, UniProt P31424).
T1 construct: Rat cerebro-cortical membrane preparation was used; from tissue; host or cells: rat cerebral cortex membranes
Put plainly: rat mGluR5 receptor binding ([3H]-M-MPEP, rat cerebro-cortical membranes). The conditions noted are these: for Ki: rat cerebro-cortical membranes, [3H]-M-MPEP 2 nM; for binding affinity to rat mGlu5 receptors: statement in words. Here is the method:
(§1) MGluR5 Receptor Binding Tests
(§2) MGluR5 receptor binding was determined according to Gasparini et al. (Bioorg. Med. Chem. Lett. 2000, 12:407-409) with modifications. Rat cerebro-cortical membrane preparation was used to determine the binding characteristics of reference compounds and novel compounds to the rat mGluR5. The A18 cell line expressing hmGluR5a (purchased from Euroscreen) was used to determine binding characteristics of the chemical compounds to the human mGluR5a receptor. [3H]-M-MPEP (2 nM) was used as a radioligand. The nonspecific binding was determined in the presence of 10 μM M-MPEP.

In the next assay the test system is male Wistar rats. Kind of assay: Anxiolytic activity in the punished drinking test (Vogel). The assay is classed as in vivo, rat. The conditions noted are these: for Punished drinking, MED: oral, 60 min before test, MED = dose increasing accepted shocks above 35, male Wistar rats; for anxiolytic activity after oral administration: statement in words. An excerpt:
Measurement of Anxiolytic Activity in the Punished Drinking Test
The method described by Vogel et al. (Psychopharmacology (Berl.) 1971, 21:1-7) was used with modifications. On the day preceding the test day male Wistar rats (180-220 g) were placed into the test chambers which were equipped with a metal water spout mounted on the wall of the chamber and a metal grid floor for delivering electric shocks. During a 5-min adaptation period the animals had free access to the drinking spout. Following the adaptation session rats were deprived of drinking water for 24 hours prior to the test. On the day of the measurement, the animals were orally treated with the test compounds and 60 minutes later were placed into the test chambers where they had access to the drinking water. In the test session drinking was punished by delivering electric shocks (1 mA, 1 sec) through the drinking spout following every 10 licks during a 270 second punishment period. Number of licks and shocks delivered were recorded and stored in a computer. Anxiolytic activity is reflected by the increased number of accepted shocks. Minimum effective doses (MED, defined as the dose which increased the number of accepted shocks above 35) were determined and used to characterize the anxiolytic potency of the tested compounds.

Another assay has as its target T2, human mGluR5a receptor (Homo sapiens, UniProt P41594).
T2 construct: host or cells: A18 cell line
Put plainly: human mGluR5a receptor binding ([3H]-M-MPEP, A18 cell line expressing hmGluR5a). To be noted: for Ki: A18 cell line expressing hmGluR5a, [3H]-M-MPEP 2 nM; for binding affinity to human mGlu5 receptors: statement in words. The method, then:
as §1, §2

T1 sequence (P31424 21-1203): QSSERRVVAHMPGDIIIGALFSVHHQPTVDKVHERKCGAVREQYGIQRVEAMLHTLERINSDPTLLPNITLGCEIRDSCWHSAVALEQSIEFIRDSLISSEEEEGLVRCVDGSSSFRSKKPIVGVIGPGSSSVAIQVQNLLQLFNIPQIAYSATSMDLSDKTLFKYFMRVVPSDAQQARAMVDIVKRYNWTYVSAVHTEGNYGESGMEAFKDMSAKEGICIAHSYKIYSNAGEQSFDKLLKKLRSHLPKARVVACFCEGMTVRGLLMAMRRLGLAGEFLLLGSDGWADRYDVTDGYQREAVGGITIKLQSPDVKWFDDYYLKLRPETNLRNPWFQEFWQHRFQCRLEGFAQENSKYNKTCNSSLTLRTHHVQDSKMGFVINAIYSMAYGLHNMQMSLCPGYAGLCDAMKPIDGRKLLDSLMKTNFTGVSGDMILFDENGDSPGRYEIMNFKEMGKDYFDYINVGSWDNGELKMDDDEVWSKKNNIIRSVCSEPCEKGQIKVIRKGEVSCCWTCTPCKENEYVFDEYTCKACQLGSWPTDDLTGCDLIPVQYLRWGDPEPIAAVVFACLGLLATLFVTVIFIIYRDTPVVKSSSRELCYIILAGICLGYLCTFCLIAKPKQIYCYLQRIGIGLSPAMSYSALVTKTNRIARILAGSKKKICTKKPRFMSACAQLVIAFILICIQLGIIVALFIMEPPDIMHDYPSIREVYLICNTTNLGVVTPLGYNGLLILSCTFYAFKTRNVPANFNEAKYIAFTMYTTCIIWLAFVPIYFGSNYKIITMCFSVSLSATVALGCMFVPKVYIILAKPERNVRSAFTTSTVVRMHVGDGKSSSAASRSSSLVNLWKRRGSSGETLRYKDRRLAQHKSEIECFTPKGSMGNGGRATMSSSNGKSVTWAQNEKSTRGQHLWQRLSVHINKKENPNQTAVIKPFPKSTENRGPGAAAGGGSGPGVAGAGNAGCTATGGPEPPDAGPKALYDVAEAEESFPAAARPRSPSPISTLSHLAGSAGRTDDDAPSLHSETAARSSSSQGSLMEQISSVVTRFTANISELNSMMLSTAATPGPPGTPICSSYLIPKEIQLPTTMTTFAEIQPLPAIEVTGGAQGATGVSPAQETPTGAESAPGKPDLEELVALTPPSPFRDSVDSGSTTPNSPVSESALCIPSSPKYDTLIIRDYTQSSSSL
T2 sequence (P41594 21-1180 isoform P41594-2 limits assumed): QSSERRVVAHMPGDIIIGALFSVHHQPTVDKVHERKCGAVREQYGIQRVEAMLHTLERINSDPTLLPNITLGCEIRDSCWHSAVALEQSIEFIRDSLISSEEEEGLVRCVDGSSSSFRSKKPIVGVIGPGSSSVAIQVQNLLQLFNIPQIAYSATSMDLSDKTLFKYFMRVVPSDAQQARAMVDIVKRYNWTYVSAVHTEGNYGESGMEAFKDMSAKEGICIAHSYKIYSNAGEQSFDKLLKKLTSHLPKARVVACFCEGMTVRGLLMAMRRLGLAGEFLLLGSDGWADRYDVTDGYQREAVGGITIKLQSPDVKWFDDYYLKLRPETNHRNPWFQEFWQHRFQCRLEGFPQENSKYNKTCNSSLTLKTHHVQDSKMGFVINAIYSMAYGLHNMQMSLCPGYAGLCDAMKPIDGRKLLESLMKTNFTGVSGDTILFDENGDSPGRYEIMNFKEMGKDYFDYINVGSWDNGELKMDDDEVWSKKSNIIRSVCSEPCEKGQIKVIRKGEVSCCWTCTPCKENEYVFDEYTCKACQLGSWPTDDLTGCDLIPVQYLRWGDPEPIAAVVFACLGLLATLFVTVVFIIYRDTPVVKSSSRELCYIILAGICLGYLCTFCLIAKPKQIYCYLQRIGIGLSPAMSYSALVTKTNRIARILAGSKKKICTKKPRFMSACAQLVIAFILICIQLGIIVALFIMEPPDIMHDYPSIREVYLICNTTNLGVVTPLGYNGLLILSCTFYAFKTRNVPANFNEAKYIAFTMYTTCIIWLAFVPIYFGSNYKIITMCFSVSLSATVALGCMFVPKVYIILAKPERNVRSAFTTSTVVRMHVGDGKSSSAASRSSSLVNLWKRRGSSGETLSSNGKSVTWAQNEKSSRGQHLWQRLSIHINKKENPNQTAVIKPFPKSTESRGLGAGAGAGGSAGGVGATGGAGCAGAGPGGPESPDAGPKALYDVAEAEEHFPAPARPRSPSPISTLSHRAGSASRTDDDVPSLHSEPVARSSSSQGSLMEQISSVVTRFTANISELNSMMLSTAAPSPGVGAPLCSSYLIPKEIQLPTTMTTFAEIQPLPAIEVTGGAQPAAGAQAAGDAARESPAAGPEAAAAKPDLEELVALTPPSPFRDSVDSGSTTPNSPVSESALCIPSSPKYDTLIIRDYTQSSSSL

`N#Cc1cc(F)cc(S(=O)(=O)c2sc3ncc(N)cc3c2-c2cccc(F)c2)c1` [Compound 1, 5-Amino-2-(3-cyano-5-fluoro-benzenesulfonyl)-3-(3-fluorophenyl)-thieno[2,3-b]-pyridine]: on rat mGluR5, the affinity, expressed as Ki, was 1.9 nM and the “binding affinity to rat mGlu5 receptors” value is listed as “high affinity”. In the assay on male Wistar rats, the “Punished drinking, MED” value was found to be 3 mg/kg and the “anxiolytic activity after oral administration” value is “remarkable anxiolytic activity”. In addition, at human mGluR5a receptor, the affinity, expressed as Ki, was 3.2 nM and the “binding affinity to human mGlu5 receptors” value was “high affinity”.

Take `N#Cc1cc(F)cc(S(=O)(=O)c2sc3ncc(N)cc3c2-c2cccc(Cl)c2)c1` [Compound 2, 5-Amino-2-(3-cyano-5-fluoro-benzenesulfonyl)-3-(3-chlorophenyl)-thieno[2,3-b]-pyridine]: on rat mGluR5, affinity was put at a Ki of 7.2 nM and the “binding affinity to rat mGlu5 receptors” value was “high affinity”. In addition, in the assay with male Wistar rats, the “Punished drinking, MED” value is recorded as 5 mg/kg and the “anxiolytic activity after oral administration” value is given as “remarkable anxiolytic activity”. Further, on human mGluR5a receptor, the Ki amounted to 8.7 nM and the “binding affinity to human mGlu5 receptors” value is “high affinity”.
